# Where “and” joins values, the source holds several entries; their conditions need not be identical. Equal values may be shown once. Read-outs that look alike come from different tables or passages of the source.
# Experiment: Placebo controlled, dose escalation pharmacokinetic study of oral (Z)-Endoxifen capsules (serum endoxifen; incl. accumulation ratios and dose linearity)
# Format: in vivo, human
# Conditions: for AUC(0-inf) / AUC(0-t) / Cmax / Tmax / Vd/F / concentration at 72 h / concentration at 120 h: female, human, serum, oral, 1 mg; for AUC(0-inf) / AUC(0-t) / Cmax / Tmax / Vd/F: N = 5; for concentration at 72 h: Day 4 Hr 72; for concentration at 120 h: Day 6 Hr 120
# Text: An objective of the study was to assess the safety and tolerability of oral (Z)-Endoxifen when administered […] orally as a capsule to healthy female volunteers. A secondary objective was to assess the pharmacokinetics of multiple doses of oral (Z)-Endoxifen in the subjects.
# Generally, healthy female volunteers aged ≥18 years and ≤65 years were enrolled. 24 participants were enrolled in 3 cohorts and will be administered study drug orally. Three dose levels of orally administered (Z)-Endoxifen were investigated in 3 cohorts. In each cohort participants were randomized to receive an oral (Z)-Endoxifen or placebo in a blinded fashion. Enteric-resistant capsules used in the study were designed as delayed release capsules to resist rupture for at least 30 minutes, but typically, for about 2 hours, under gastric conditions and then open fully in intestinal fluid (DRCaps; Capsugel, a Lonza Company, USA). Enteric-resistant (Swedish Orange size Zero (0); Capsugel, USA) DRCaps capsules manually filled with 1, 2 or 4 mg of (Z)-endoxifen neat in compliance with GMP requirements were used. Placebo capsules contained microcrystalline cellulose an inert common capsule and tablet excipient.
# Each cohort enrolled 8 participants, with 6 participants receiving (Z)-Endoxifen 1 mg capsules orally at 1 mg (Cohort 1), 2 mg (Cohort 2) or 4 mg (Cohort 3) doses and 2 participants receiving matching placebo capsules. In Cohort 1 (Dose Level=1 mg) two participants (sentinels) were dosed 24 hours prior to the remaining participants. One sentinel was dosed with (Z)-Endoxifen and the other with placebo. The remaining six participants in Cohort 1 were dosed as no safety concerns were identified in the sentinel participants. The non-sentinel participants in Cohort 1 were admitted to the clinical research facility at least one day later than the sentinels. There were no sentinels in Cohorts 2 and 3.
# Participant engagement in this study was for a period of 56 days. These included a 28 day screening period, and a 7 day post treatment period for Pharmacokinetic (PK) sampling. There were two confinement periods, one at the beginning and one at the end of the dosing periods. Participants were confined to the clinical facility on Days-1 through to Day 2 and Days 21 and 22. If participants were to experience any clinically significant adverse events during the study, they would have been required to remain in the clinical facility for further observation at the discretion of the Principal Investigator (PI).
# Healthy female volunteers were screened within 28 days prior to commencement of dosing. Participants were admitted to the clinical facility on Day-1 for up to 3 days. The first dose of (Z)-Endoxifen or placebo capsules was administered on Day 1. Following completion of all safety assessments and sampling for PK analyses, participants were discharged from the clinical facility on Day 2. The first dose on Day 1 was followed by a 6-day treatment free period (Days 2-7). Each participant returned to the clinical facility for PK blood draws and safety assessments during the treatment free period on study Days 4 and 6. On Day 8 participants commenced daily administration of (Z)-Endoxifen capsules or placebo capsules for 14 consecutive days (Days 8-21). Participants were supplied with study drug capsules and asked to self administer daily. Participants visited the clinical facility on Days 11, 14 and 17, prior to dose administration, for PK blood draws and safety assessments. On the morning of Day 21 each participant returned to the clinical facility prior to dose administration and were confined to the facility until Day 22 to allow for the collection of PK blood draws and safety assessments. The Day 21 dose was the last administration of study drug. Participants were discharged from the clinical facility on Day 22 and returned for PK blood draws and safety assessments on study Days 24, 26, and 28. […]
# [1] = read-out: Serum concentration, GeoMean
# [2] = read-out: Serum concentration, Max
# [3] = read-out: Serum concentration, Mean
# [4] = read-out: Serum concentration, Median
compound,measurement,setting,value
"CC/C(=C(\c1ccc(O)cc1)c1ccc(OCCNC)cc1)c1ccccc1 [(Z)-Endoxifen, (Z)-4-(1-(4-(2-(methylamino)ethoxy)phenyl)-2-phenylbut-1-enyl) phenol]","AUC(0-inf), individual subjects","Dose: 2 mg oral, Day 1",1188 ng·h/mL and 755 ng·h/mL and 954 ng·h/mL and 1242 ng·h/mL and 1489 ng·h/mL
same,"AUC(0-inf), individual subjects","Dose: 4 mg oral, Day 1",1098 ng·h/mL and 1642 ng·h/mL and 736 ng·h/mL and 1883 ng·h/mL and 2116 ng·h/mL and 4624 ng·h/mL
same,Time to maximum serum endoxifen levels,FIG. 3 and FIG. 4,about 10 hours
same,dose response of Cmax and AUC24hr,"across the three dose levels, once daily oral",dose-proportionality (linear dose response)
same,Mean Ratio AUC24 hr(Day 21)/AUC0-inf(Day 1),dose 1 mg (n = 5),0.81 (SD 0.20)
same,Mean Ratio AUC24 hr(Day 21)/AUC24 hr(Day 1),dose 1 mg (n = 5),3.09 (SD 1.49)
same,Mean Ratio Cmax(Day 21)/Cmax(Day 1),dose 1 mg (n = 5),2.74 (SD 1.29)
same,Mean Ratio AUC24 hr(Day 21)/AUC0-inf(Day 1),dose 2 mg (n = 6),0.85 (SD 0.20)
same,Mean Ratio AUC24 hr(Day 21)/AUC24 hr(Day 1),dose 2 mg (n = 6),3.04 (SD 0.79)
same,Mean Ratio Cmax(Day 21)/Cmax(Day 1),dose 2 mg (n = 6),2.92 (SD 0.88)
same,Mean Ratio AUC24 hr(Day 21)/AUC0-inf(Day 1),dose 4 mg (n = 6),1.08 (SD 0.38)
same,Mean Ratio AUC24 hr(Day 21)/AUC24 hr(Day 1),dose 4 mg (n = 6),3.47 (SD 1.08)
same,Mean Ratio Cmax(Day 21)/Cmax(Day 1),dose 4 mg (n = 6),3.56 (SD 1.01)
same,AUC(0-inf),"Day 1, read-out: AUC0-inf, GeoMean",559 ng·h/mL
same,AUC(0-inf),"Day 1, read-out: AUC0-inf, Mean",567 ng·h/mL
same,AUC(0-inf),"Day 1, read-out: AUC0-inf, Median",534 ng·h/mL
same,AUC(0-t),"Day 1, read-out: AUC24hr, GeoMean",155 ng·h/mL
same,AUC(0-t),"Day 1, read-out: AUC24hr, Mean",158 ng·h/mL
same,AUC(0-t),"Day 1, read-out: AUC24hr, Median",171 ng·h/mL
same,AUC(0-t),"Day 1, read-out: AUCTlast, GeoMean",466 ng·h/mL
same,AUC(0-t),"Day 1, read-out: AUCTlast, Mean",471 ng·h/mL
same,AUC(0-t),"Day 1, read-out: AUCTlast, Median",472 ng·h/mL
same,Cmax,"Day 1, read-out: Cmax, GeoMean",9.5 ng/mL
same,Cmax,"Day 1, read-out: Cmax, Mean",9.6 ng/mL
same,Cmax,"Day 1, read-out: Cmax, Median",10 ng/mL
same,Tmax,"Day 1, read-out: Tmax, GeoMean",5.11 h
same,Tmax,"Day 1, read-out: Tmax, Mean",5.62 h
same,Tmax,"Day 1, read-out: Tmax, Median",6 h
same,Vd/F,"Day 1, read-out: Vz/F, GeoMean",118 L
same,Vd/F,"Day 1, read-out: Vz/F, Mean",120 L
same,Vd/F,"Day 1, read-out: Vz/F, Median",108 L
same,AUC(0-t),"Day 21, read-out: AUC24hr, GeoMean",431 ng·h/mL
same,AUC(0-t),"Day 21, read-out: AUC24hr, Mean",458 ng·h/mL
same,AUC(0-t),"Day 21, read-out: AUC24hr, Median",527 ng·h/mL
same,Cmax,"Day 21, read-out: Cmax, GeoMean",23.3 ng/mL
same,Cmax,"Day 21, read-out: Cmax, Mean",24.6 ng/mL
same,Cmax,"Day 21, read-out: Cmax, Median",29 ng/mL
same,Tmax,"Day 21, read-out: Tmax, GeoMean",6.64 h
same,Tmax,"Day 21, read-out: Tmax, Mean",6.88 h
same,Tmax,"Day 21, read-out: Tmax, Median",8 h
same,Vd/F,"Day 21, read-out: Vz/F, GeoMean",173 L
same,Vd/F,"Day 21, read-out: Vz/F, Mean",181 L
same,Vd/F,"Day 21, read-out: Vz/F, Median",170 L
same,concentration at 72 h,[1],7.84 nM
same,concentration at 72 h,[2],10.7 nM
same,concentration at 72 h,[3],8.03 nM
same,concentration at 72 h,[4],8.03 nM
same,concentration at 72 h,"read-out: Serum concentration, Min",5.35 nM
same,concentration at 120 h,[1],3.53 nM
same,concentration at 120 h,[2],5.35 nM
same,concentration at 120 h,[3],3.75 nM
same,concentration at 120 h,[4],2.68 nM

# Source: US12275684B2, “Methods for making and using endoxifen” (Atossa Therapeutics, Inc., priority 2017, dated 2025)
